Measured values reported in PMC6920997, “Total Phenolic and Flavonoid Content and Biological Activities of Extracts and Isolated Compounds of Cytisus villosus Pourr” (Biomolecules, 2019).
Converted amounts (≈) assume the structure as drawn. Like-named read-outs stand apart in the source and are kept apart here.

How the values were obtained:
[1] = system: methicillin-resistant S. aureus (MRSA); experiment: Antibacterial assay MRSA; type: cell-based; settings: Staphylococcus aureus, Concentration: 50 μg/mL, <50 considered inactive, read-out: % Growth Inhibition MRSA
Description: (§1) Extracts and pure compounds were tested for their antimicrobial activity against Staphylococcus aureus, methicillin-resistant S. aureus (MRSA), Escherichia coli, Pseudomonas aeruginosa, and Mycobacterium intracellulare. The antifungal activities were evaluated against a panel of pathogenic fungi, including Candida albicans, C. glabrata, C. krusei, Aspergillus fumigatus, and Cryptococcus neoformans, associated with opportunistic infections.

THP1 cells = experiment: THP1 cytotoxicity; type: cell-based
From the text: (§2) The in vitro antileishmanial and antitrypanosomal assays were done on cell cultures of L. donovani promastigotes, axenic amastigotes, THP1-amastigotes, and Trypanosoma brucei trypomastigotes by Alamar Blue assays. The conditions for seeding the THP1 cells, exposure to the test samples, and evaluation of cytotoxicity were the same as described in parasite-rescue and transformation assay. IC50 and IC90 values were computed from the dose response curves using XLfit software (XLfit 5.3.1, IDBS analytical, Boston MA, USA). DFMO (difluoromethylornithine) was used as the positive control. The antiprotozoal activity of C. villosus extracts and isolated compounds were evaluated in vitro against L. donovani promastigotes, axenic amastigotes, and intracellular amastigotes in THP1 cells. The extracts and some isolated compounds were also evaluated against T. brucei trypomastigote forms. All the extracts and compounds were simultaneously tested against THP1 cell for determination of general cytotoxicity. The extracts and isolated compounds were also evaluated for their antimalarial activity against chloroquine-sensitive (D6, Sierra Leone) and chloroquine-resistant strains (W2, Indochina) strains of Plasmodium falciparum. Furthermore, they were tested for cytotoxicity against the Vero cell line.

THP1 cytotoxicity = type: cell-based; settings: human
From the text: as §2

[2] = system: L. donovani promastigotes; experiment: Antileishmanial Alamar Blue assay, promastigotes; type: cell-based; settings: Leishmania donovani; for IC50: read-out: L. donovani Promastigote IC50; for IC90: read-out: L. donovani Promastigote IC90
From the text: as §2

[3] = system: L. donovani axenic amastigotes; experiment: Antileishmanial Alamar Blue assay, axenic amastigotes; type: cell-based; settings: Leishmania donovani; for IC50: read-out: L. donovani Amastigote IC50; for IC90: read-out: L. donovani Amastigote IC90
From the text: as §2

Escherichia coli = experiment: Antibacterial assay E. coli; type: cell-based; settings: for inhibition at 50 µg/mL: Concentration: 50 μg/mL, <50 considered inactive, read-out: % Growth Inhibition E. coli
Description: as §1

Candida albicans = experiment: Antifungal assay C. albicans; type: cell-based; settings: for inhibition at 50 µg/mL: Concentration: 50 μg/mL, <50 considered inactive, read-out: % Growth Inhibition C. albicans
Description: as §1

Pseudomonas aeruginosa = experiment: Antibacterial assay P. aeruginosa; type: cell-based; settings: for inhibition at 50 µg/mL: Concentration: 50 μg/mL, <50 considered inactive, read-out: % Growth Inhibition P. aeruginosa
Description: as §1

[4] = system: L. donovani intracellular amastigotes in THP1 cells; experiment: Antileishmanial assay, intracellular amastigotes in THP1 cells; type: cell-based; settings: Leishmania donovani; for IC50: THP-1, read-out: L. donovani Amastigote/THP1 IC50; for IC90: THP-1, read-out: L. donovani Amastigote/THP1 IC90
From the text: as §2

Aspergillus fumigatus = experiment: Antifungal assay A. fumigatus; type: cell-based; settings: Concentration: 50 μg/mL, <50 considered inactive, read-out: % Growth Inhibition A. fumigatus
Description: as §1

Cryptococcus neoformans = experiment: Antifungal assay C. neoformans; type: cell-based; settings: for inhibition at 50 µg/mL: Concentration: 50 μg/mL, <50 considered inactive, read-out: % Growth Inhibition C. neoformans
Description: as §1

[5] = DPPH radical scavenging assay; settings: mean ± SD of three measurements
Description: The antioxidant activity of the extracts and pure isolated compounds was determined by applying the 2,2-diphenyl-1-picrylhydrazyl (DPPH) radical scavenging method.

[6] = Cytotoxicity against Vero cell line (antimalarial counterscreen); type: cell-based; settings: African green monkey, column head does not name the cells, read-out: IC50 (third IC50 column of Table 7, presumably Vero cytotoxicity)
From the text: as §2

P. falciparum (W2 Clone) = experiment: Antimalarial assay, chloroquine-resistant W2 clone; type: cell-based, Plasmodium falciparum; settings: for SI (second SI column of Table 7, presumably W2): selectivity index = IC50 for cytotoxicity/IC50 for antimalarial activity
From the text: as §2

P. falciparum (D6 Clone) = experiment: Antimalarial assay, chloroquine-sensitive D6 clone; type: cell-based, Plasmodium falciparum; settings: for SI (first SI column of Table 7, presumably D6): selectivity index = IC50 for cytotoxicity/IC50 for antimalarial activity
From the text: as §2

iNOS = experiment: Inhibition of iNOS (intracellular NO production) in RAW 264.7 macrophages; type: cell-based; settings: Mus musculus, RAW264.7; RAW 264.7 cells; NA = no activity at 25 µg/mL (pure compounds) or 100 µg/mL (extracts)
Description: The extracts and isolated compounds of C. villosus were evaluated in terms of their interaction with cellular targets related to inflammation and metabolic disorders, such as iNOS and NF-κB. The inhibition of intracellular NO production as a result of iNOS activity was assayed in mouse macrophages (RAW 264.7cells). Cytotoxicity of test samples to macrophages was also determined in parallel to check if the inhibition of iNOS was due to cytotoxic effects.

NF-κB = experiment: Reporter gene assay for the inhibition of NF-κB; type: cell-based; settings: PMA-treated cells, luciferase reporter; NA = no activity at 25 µg/mL (pure compounds) or 100 µg/mL (extracts); read-out: Inhibition of NF-kB IC50
Description: Reporter gene assay for the inhibition of NF-κB Activity was performed as described earlier. In brief, cells transfected with NF-κB luciferase plasmid construct were plated in 96-well plates at a density of 1.25 × 10^5 cells/well. After 24 h, cells were treated with the test compounds and, after incubating for 30 min, phorbol 12-myristate 13-acetate (PMA) (Sigma-Aldrich, Burlington MA, USA) (70 ng/mL) was added and further incubated for 6−8 h. Luciferase activity was measured as described above. Percent decrease in luciferase activity was calculated relative to the vehicle control. Parthenolide (Sigma-Aldrich, Burlington MA, USA) was used as a positive control.

Staphylococcus aureus = experiment: Antibacterial assay S. aureus; type: cell-based; settings: pure compounds
Description: as §1

[7] = system: Trypanosoma brucei trypomastigotes; experiment: Antitrypanosomal Alamar Blue assay; type: cell-based; settings: Trypanosoma brucei, Table 4
From the text: as §2

Structure (SMILES) | inhibition at 50 µg/mL [1] | IC50 [2] | IC90 [2] | IC50 [3] | IC90 [3] | inhibition at 50 µg/mL (Escherichia coli) | inhibition at 50 µg/mL (Candida albicans) | inhibition at 50 µg/mL (Pseudomonas aeruginosa) | IC50 [4] | IC90 [4] | inhibition at 50 µg/mL (Cryptococcus neoformans) | SI (second SI column of Table 7, presumably W2) (P. falciparum (W2 Clone)) | SI (first SI column of Table 7, presumably D6) (P. falciparum (D6 Clone)) | IC50 (iNOS) | also measured
C[C@@H]1[C@H](O)[C@@H](C)/C=C/C=C/C=C/C=C/C=C/C=C/C=C/[C@H](O[C@@H]2O[C@H](C)[C@@H](O)[C@H](N)[C@@H]2O)C[C@@H]2O[C@](O)(C[C@@H](O)C[C@@H](O)[C@H](O)CC[C@@H](O)C[C@@H](O)CC(=O)O[C@H]1C)C[C@H](O)[C@H]2C(=O)O [Amphotericin B, reference compound] | 1% | 136 nM | 215 nM | 211 nM | 374 nM | 0% | 100% | 0% | 188 nM | 421 nM | 100% |  |  |  | THP1 Cytotoxicity C90 (THP1 cells; human): >2 µM; IC50 (THP1 cytotoxicity): > 2000 nM; inhibition at 50 µg/mL (Aspergillus fumigatus): 93%
O=C1O[C@H]([C@@H](O)CO)C(O)=C1O [Ascorbic acid] |  |  |  |  |  |  |  |  |  |  |  |  |  |  | DPPH Scavenging IC50 [5]: 43 ± 6 µg/mL
O=C(O)c1cn(C2CC2)c2cc(N3CCNCC3)c(F)cc2c1=O [CIPRO, Ciprofloxacin, reference compound] | 0% |  |  |  |  | 100% | 0% | 96% |  |  | 0% |  |  |  | 
CCN(CC)CCCC(C)Nc1ccnc2cc(Cl)ccc12 (centres unmarked) [CQ, Chloroquine, reference compound] |  |  |  |  |  |  |  |  |  |  |  | >2.1 | >9 |  | IC50 [6]: > 0.238 µg/mL; IC50 (P. falciparum (W2 Clone); Plasmodium falciparum, W2, read-out: IC50 (second IC50 column of Table 7, presumably P. falciparum W2)): 0.116 µg/mL (≈ 0.363 µM); inhibition at 0.0793 µg/mL (P. falciparum (D6 Clone); Plasmodium falciparum, D6, read-out: %Inhibition P. falciparum (D6 Clone)): 100%; IC50 (P. falciparum (D6 Clone); Plasmodium falciparum, read-out: IC50): < 0.026 µg/mL
O=c1c(-c2ccc(O)cc2)coc2cc(O)cc(O)c12 [Compound 1, genistein] |  |  |  |  |  |  |  |  |  |  |  |  |  | 9 µg/mL (≈ 33.3 µM) | IC50 (NF-κB): 28 µg/mL (≈ 104 µM)
O=c1cc(-c2ccccc2)oc2cc(O[C@@H]3O[C@H](CO)[C@@H](O)[C@H](O)[C@H]3O)cc(O)c12 [Compound 3, chrysin-7-O-β-D-glucopyranoside] |  | > 10000 nM | > 10000 nM | > 10000 nM | > 10000 nM |  |  |  | > 10000 nM | > 10000 nM |  | 1 | 1 | 20 µg/mL (≈ 48 µM) | THP1 Cytotoxicity C90 (THP1 cells): >10 µM; IC50 (THP1 cytotoxicity; THP1 cells, read-out: THP1 Cytotoxicity IC50): > 10000 nM; IC50 (Staphylococcus aureus): > 20 µg/mL; IC50 ([6]; Vero cells): > 4.76 µg/mL; IC50 (Escherichia coli; pure compounds): > 20 µg/mL; IC50 (Candida albicans; pure compounds): > 20 µg/mL; IC50 (Pseudomonas aeruginosa; pure compounds): > 20 µg/mL; IC50 (Cryptococcus neoformans; pure compounds): > 20 µg/mL; IC50 ([7]; read-out: T. brucei IC50): > 10000 nM; IC90 ([7]; read-out: T. brucei IC90): > 10000 nM
